Reference: patent US9802992B2, “Cell into which protein, which can serve as polymerization nucleus of protein polymer, or polymer thereof is introduced, and method for production of the cell” (TOKYO ME[…] OF MEDICAL SCIENCE, priority 2005, dated 2017)

How the values were obtained:
α-synuclein = molecular target: T1, α-synuclein (Homo sapiens, UniProt P37840); assay: Inhibition of fibrillization of α-synuclein in vitro (thioflavin S fluorescence); type: biochemical; settings: 2 mg/mL α-synuclein, shaking at 37° C., 20 μM Gossypetin, compared with sample without Gossypetin (FIG. 7)
T1 construct: made in house; host or cells: E. coli BL21(DE3), pRK172 vector
Method: Gossypetin, a polyphenol compound may be taken as an example of a candidate substance. Gossypetin is a flavonol contained in Gossypium herbaceum LINNE and is polyphenol compound used as a food additive. For example, it is possible to investigate whether Gossypetin inhibits fibrillization of α-synuclein in vitro by incubating α-synuclein in the presence of Gossypetin, adding thioflavin S to the solution after the reaction and measuring the fluorescence intensity. Thioflavin S is a test reagent which emits fluorescence upon binding to a protein which can serve as a polymerization nucleus of a protein polymer, or a protein polymer thereof, which are rich in β-sheet structure and which therefore can be used to determine the presence or absence of a protein which can serve as a polymerization nucleus of a protein polymer, or a protein polymer thereof. In contrast, since α-synuclein fibrils are rich in β-sheet structure, if Gossypetin inhibits fibrillization of α-synuclein, the fluorescence intensity should be lower than samples to which Gossypetin has not been added.
[…] Fluorescence intensity was measured using a Hitachi F4000 spectrophotometer (excitation wavelength 440 nm, fluorescence wavelength 520 nm).
2 mg/mL of α-synuclein was incubated with shaking at 37° C. in the presence or absence of 20 μM of Gossypetin. Fibril formation was measured by thioflavin S fluorescence. […]

[1] = system: SH-SY5Y cells into which α-synuclein plasmid and fibrils are introduced (WT+FαS cells); assay: Cell death assay (LDH leakage) in the cellular model of α-synuclein proteinopathy; type: cell-based; settings: Gossypetin (20 μM), incubated three days; without polyphenol approximately 50% (FIG. 8)
Method: A cell death assay was performed using cells into which pcDNA3-α-syn vector and α-synuclein fibrils are introduced, and which had been incubated for three days either in the presence or the absence of a fibrillization inhibitor. Gossypetin (20 μM) which is a type of polyphenol was used as the fibrillization inhibitor.
After incubation for three days, a portion of the cell media in the culture was harvested. The cells from the remaining media were prepared as a Tris-soluble fraction in the same manner as the Tris-soluble fraction described above. A cell death assay was performed on the harvested media and the Tris-soluble fraction using a CYTOTOX 96™ Non-Radioactive Cytotoxicity Assay Kit (Promega). The method was performed in accordance with the explanatory material accompanying the kit.
A cell death assay was performed on the following three types of cells: untreated cells (none), FαS cells into which only α-synuclein fibril was introduced, and WT+FαS cells into which fibril and α-synuclein plasmid DNA were introduced. After culturing the cells for three days, cell death was evaluated by lactate dehydrogenase (LDH) leakage assay. This assay is based on determining how much LDH originally inside the cell has leaked outside the cell as a result of cell death.
Gossypetin was added to SH-SY5Y cells into which α-synuclein plasmid and fibrils are introduced, and incubated for three days. […]

Compound: O=c1c(O)c(-c2ccc(O)c(O)c2)oc2c(O)c(O)cc(O)c12 [Gossypetin]
- thioflavin S fluorescence intensity (fibril formation of α-synuclein) (α-synuclein): conspicuous decrease
- rate of cell death [1]: conspicuous inhibition
